Values of other authors, collected in patent US7648957B2, “Nutritional and therapeutic composition of an insulin sensitizer and a peptide fraction” (DSM IP Assets B.V., priority 2002, dated 2010).

Columns and labels:
[1] = system: cell's response to insulin; conditions: on administration of the chemical, estimated
[2] = very high glucose levels

Q: Which “rise of sensitivity to insulin” value [1] does the source give for methylhydroxy chalcone polymer [MHCP] here?
A: Its value is “around 20 fold”.

Q: And the “glucose levels in diabetic mice” value [2]?
A: The value was “could normalise very high glucose levels”.
